Several values for one entry are separate records, joined by “and”; a condition that tells them apart may be missing. Equal entries are not always repeated.
Columns and labels:
Type in all cases: cell-based
Daudi cells = test: Cell viability assay (CellTiter-Glo), Daudi; details: for raw viability signal, replicates: Daudi
How it was run: (§1)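 Compounds added in serum-free medium for 4 h (RS4:11: 6 h), then FBS brought to 10% and incubation continued to 24 h or 48 h total at 37 °C, 5% CO2. Viability by CellTiter-Glo 2.0 luminescence; IC50 calculated.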

A549 cells (control) = test: Cell viability assay (CellTiter-Glo), normal A549 (control); details: for raw luminescence reading / control inhibiton rate: A549 control, single wells
Procedure: (§2) The cell lines Jurkat (TIB-152), El4 (TIB-39), Daudi (ccl-213), RS4:11 (crl-1873), A549 (ccl-185), HepG2 (hb-8065) and PANC-1 (crl-1469) were purchased from ATCC (American Type Culture Collection), and MGC-803 (C6582) was purchased from Beyotime (https://www.beyotime.com/product/C6582.htm). […] Daudi and RS4:11 cells were cultured in RPMI-1640 medium (HyClone, SH30809.01) and 10% FBS (Gibco, 10099-141), whereas HepG2, MGC-803 and PANC-1 cells were cultured in MDEM (HyClone, SH30243.01). Cells were maintained at 37 °C under a humidified, 5% (v/v) CO2-containing atmosphere.
(§3) Cell viability was measured using CellTiter-Glo® 2.0 Reagent (Promega, G9242). […] After different inhibitors were added into serum-free medium and cultured for 4 h (RS4:11 for 6 h), FBS were supplemented to 10% and then incubated totally for 24 h or 48 h. Finally, the IC50 values were calculated based on measurements using a microplate reader (Thermo, Varioskan LUX). Statistical analysis was performed using software GraphPad Prism 7.0.

RS4:11 cells = test: Cell viability assay (CellTiter-Glo), RS4:11; details: for raw luminescence reading / inhibition rate: RS4:11, single wells
How it was run: as §1

Jurkat cells = test: Cell viability assay (CellTiter-Glo), Jurkat
Procedure: as §2, §3

[1] = system: A549 cells overexpressing BCL-2 G101V; test: Cell viability assay, A549 stably overexpressing BCL-2 G101V; details: A549 BCL2/G101V, single wells
Procedure: as §3
Lentivirus packaging vectors pMDLg/pRRE, pRSV-Rev, and pVSV-G were obtained from Prof. Han Jiahuai’s lab (Xiamen University). Lentiviruses were produced using 3rd-generation lentivirus packaging plasmids transiently transfected into HEK293T cells with the constructs of interest using 0.25 M CaCl2. Media was changed after 16 h, and supernatants containing infectious virus particles were harvested 24 h later. A second viral harvest was made following a further 24 h incubation with fresh media. Virus containing supernatant was filtered through a […], and stored at 4 °C or −80 °C until being used. Typically, A549 cells were seeded into 10 cm cell culture dishes at 4 ~ 8 × 10^5 cells/cm^2. An equivalent volume of virus containing culture medium was added along with polybrene (Sigma) to a final concentration of 10 µg/mL. Cells were incubated at 37 °C for 20 h, before they were washed and resuspended in fresh culture media. The expression level of BCL-2 was measured by qPCR and western blot methods.

## O=C(c1cc(-c2cc3c(cc2C(=O)N2Cc4ccccc4C[C@H]2CN2CCOCC2)OCO3)n2c1CCCC2)N(c1ccccc1)c1ccc(O)cc1 [S55746]
Daudi cells; 48 h treatment, CellTiter-Glo
  IC50: 10 ± 0.4 µM
Daudi cells; 3.125 uM
  raw viability signal, replicates: 1593 and 1426 and 1310 and 1450 and 1626 and 1878
Daudi cells; 6.25 uM
  raw viability signal, replicates: 1078 and 1072 and 931.3 and 1127 and 973.9 and 1033
Daudi cells; 12.5 uM
  raw viability signal, replicates: 455.5 and 506.4 and 780.1 and 751.1 and 919.0 and 638.7
Daudi cells; 25 uM
  raw viability signal, replicates: 431.3 and 645.0 and 475.8 and 693.5 and 515.7 and 555.5
Daudi cells; 50 uM
  raw viability signal, replicates: 362.9 and 364.8 and 354.3 and 237.1 and 424.9 and 407.4
Daudi cells; 100 uM
  raw viability signal, replicates: 330.6 and 360.1 and 410.7 and 529.9 and 565.2 and 706.1
A549 cells (control); 48 h, CellTiter-Glo, n = 6, read-out: IC50 A549 control (original cells)
  IC50: 74.1 ± 4.5 µM
A549 cells (control); 3.125 uM
  raw luminescence reading: 680400 and 663400 and 563700 and 629300 and 626800 and 613100
A549 cells (control); 6.25 uM
  raw luminescence reading: 624000 and 698000 and 600600 and 640100 and 681300 and 637500
A549 cells (control); 12.5 uM
  raw luminescence reading: 490700 and 564100 and 465600 and 496900 and 544400 and 512100
A549 cells (control); 25 uM
  control inhibiton rate: 29% and 19% and 33% and 30% and 20% and 28%
  raw luminescence reading: 465600 and 531000 and 436600 and 460300 and 522200 and 471500
A549 cells (control); 50 uM
  control inhibiton rate: 45% and 39% and 47% and 38% and 42%
  raw luminescence reading: 357700 and 400600 and 345700 and 358400 and 403100 and 379300
A549 cells (control); 100 uM
  control inhibiton rate: 58% and 52% and 57% and 50% and 55%
  raw luminescence reading: 277600 and 315100 and 274100 and 282200 and 324600 and 296100
A549 cells (control); 200 uM
  control inhibiton rate: 64% and 60% and 63% and 57% and 61%
  raw luminescence reading: 232800 and 260700 and 234900 and 239800 and 281200 and 257400
RS4:11 cells; 48 h treatment, CellTiter-Glo, small-molecule inhibitors, cells marked (nM)
  IC50: 4.5 ± 0.1 nM
RS4:11 cells; 2.44141 nM
  raw luminescence reading: 232300 and 260200 and 275600 and 316000 and 308700 and 306800
RS4:11 cells; 4.88281 nM
  raw luminescence reading: 135300 and 123100 and 129200 and 110700 and 132100 and 115900
RS4:11 cells; 4.88281 nM, 0.00488281 µM
  inhibition rate: 53% and 57% and 55% and 61% and 54% and 59%
RS4:11 cells; 9.76562 nM
  raw luminescence reading: 75370 and 71000 and 72070 and 63170 and 68200 and 61260
RS4:11 cells; 9.76562 nM, 0.00976562 µM
  inhibition rate: 74% and 75% and 78% and 76% and 79%
RS4:11 cells; 19.5312 nM
  raw luminescence reading: 38320 and 36520 and 36660 and 31950 and 34870 and 31060
RS4:11 cells; 19.5312 nM, 0.0195312 µM
  inhibition rate: 87% and 89% and 88%
RS4:11 cells; 39.0625 nM
  raw luminescence reading: 14610 and 13790 and 14580 and 12190 and 12650 and 12610
RS4:11 cells; 39.0625 nM, 0.0390625 µM
  inhibition rate: 95% and 96%
RS4:11 cells; 78.125 nM
  raw luminescence reading: 4289 and 3678 and 4541 and 3543 and 3931 and 3419
RS4:11 cells; 78.125 nM, 0.078125 µM
  inhibition rate: 98% and 99%
RS4:11 cells; 156.25 nM
  raw luminescence reading: 1268 and 1101 and 1335 and 1644 and 1000 and 916.1
RS4:11 cells; 156.25 nM, 0.15625 µM
  inhibition rate: 100% and 99%
RS4:11 cells; 312.5 nM
  inhibition rate: 100%
  raw luminescence reading: 809.8 and 810.5 and 948.9 and 960.0 and 1116 and 1097
RS4:11 cells; 625 nM
  inhibition rate: 99%
  raw luminescence reading: 1448 and 1571 and 1720 and 1855 and 1831 and 2149
RS4:11 cells; 1250 nM
  inhibition rate: 100%
  raw luminescence reading: 256.4 and 322.1 and 360.1 and 295.0 and 378.2 and 348.9
RS4:11 cells; 2500 nM
  inhibition rate: 100%
  raw luminescence reading: 334.6 and 379.8 and 329.3 and 445.4 and 358.3 and 346.2
RS4:11 cells; 5000 nM
  inhibition rate: 100%
RS4:11 cells; 10000 nM
  inhibition rate: 100%
  raw luminescence reading: 297.6 and 210.5 and 312.1 and 264.1 and 325.8 and 327.8
Jurkat cells; 1.5625 uM
  raw viability signal, replicates: 1714000 and 1704000 and 1684000 and 1696000 and 1705000 and 1721000
Jurkat cells; 3.125 uM
  raw viability signal, replicates: 1448000 and 1401000 and 1343000 and 1377000 and 1375000 and 1402000
Jurkat cells; 6.25 uM
  raw viability signal, replicates: 1130000 and 1065000 and 1037000 and 1061000 and 1063000 and 1084000
Jurkat cells; 12.5 uM
  raw viability signal, replicates: 892300 and 842800 and 825800 and 842200 and 844000 and 860800
Jurkat cells; 25 uM
  raw viability signal, replicates: 395000 and 492300 and 419200 and 469600 and 467400 and 468800
Jurkat cells; 50 uM
  raw viability signal, replicates: 146000 and 160200 and 184200 and 190000 and 211800 and 228200
[1]; 3.125 uM
  BCL2/G101V inhibiton rate: 8% and 4.44% and 2.43% and 0.638% and 1% and 2%
  raw luminescence reading: 671600 and 698900 and 713600 and 726700 and 723800 and 716000
[1]; 6.25 uM
  BCL2/G101V inhibiton rate: 13% and 10% and 7.56% and 8% and 9%
  raw luminescence reading: 633100 and 639000 and 656800 and 676100 and 673100 and 668300
[1]; 12.5 uM
  BCL2/G101V inhibiton rate: 26% and 24% and 22% and 23% and 21%
  raw luminescence reading: 539700 and 558400 and 568300 and 571800 and 566400 and 579500
[1]; 25 uM
  BCL2/G101V inhibiton rate: 24% and 23% and 22% and 21%
  raw luminescence reading: 553400 and 560600 and 571800 and 579800 and 580700 and 578200
[1]; 50 uM
  BCL2/G101V inhibiton rate: 39% and 38% and 36% and 35% and 34%
  raw luminescence reading: 444500 and 453000 and 466400 and 464700 and 472100 and 479600
[1]; 100 uM
  BCL2/G101V inhibiton rate: 46% and 45% and 42%
  raw luminescence reading: 392800 and 395900 and 399700 and 397700 and 405800 and 422300
[1]; 200 uM
  BCL2/G101V inhibiton rate: 48% and 49% and 45% and 44%
  raw luminescence reading: 382600 and 370800 and 376000 and 400600 and 410900
